Data on 7 compounds can be found in patent publication US11384073B2, “Maleate salt of benzothiophene compound, crystalline form thereof, and use thereof” (SHANGHAI INSTITUTE OF MATERIA MEDICA, CHINESE ACADEMY OF …, priority 2018, dated 2022).

In general, Solubility refers to how much of the substance goes into solution per volume.

Converted amounts (≈) assume the structure as drawn. Read-outs that look alike come from different tables or passages of the source.

Data set [1] is described as follows: Comparison of solubility of the compounds. The class given is physicochemical. Here is the method:
An appropriate amount of a sample was weighted in a glass tube, the selected solvent was added thereto in a gradient and the resultant was observed until it became clear.

The nature of data set [2]: Comparison of appearance and compositions of the compounds. The class given is physicochemical. The source says: The basic compound of compound Z (Example 1) was compared with the different salts of compound Z (Examples 2, 6-12) for their appearance, compositions, crystalline forms, etc., and the results are shown in the following table: […]
Another data set relates to Wistar rats. Kind of data set: Acute toxicity experiments in rats. The class given is in vivo. The method, then: Wistar rats were randomly divided into 3 groups with 10 rats in each group. The animals were fasted for 12 hours before the administration, and the muscle relaxation state of the animals was observed 1 hour after the administration. The animal's two forepaws were gripped on a 40 cm-high hemp rope for testing for three times. The case in which the animal could put the hind paws on the rope within 15 s for two or more times was regarded as no muscle relaxation. Otherwise, it was regarded as muscle relaxation. After each animal's muscle relaxation test, a catalepsy experiment was performed, and the “grip rod” experiment method was used to determine the rat's rigidity duration. The rat's two forepaws were gently put on a small rod to test the duration time that the rats maintained their two forepaws on the rod in a 45-degree posture. […] If the rat's forepaw had not been put down, the observation was terminated at 180 s.

The nature of data set [3]: Comparison of stability (Factors influencing test).
Data set [4] can be described thus: Comparison of hygroscopicity. It is filed as physicochemical. The conditions noted are these: relative humidity 92.5%, 96 hours; for Moisture gain: room temperature. Here is the method: The basic compound of compound Z (Example 1) and the different salts of compound Z (Examples 2, 4-6, 9) were studied for their hygroscopicity. A certain amount of the test sample was placed in a precisely weighed glass weighing bottle with a stopper, and weighed accurately. The weighing bottle was openly placed in a desiccator (a saturated potassium nitrate solution was placed in the lower part, with a relative humidity of 92.5%), and kept at room temperature for 96 hours, and then the weighing bottle was covered with the stopper and weighed accurately. The moisture gain was calculated.

[5] abbreviates: High temperature (60° C.), Day 2.
The mark [6] stands for this setting: Illumination (4500 lx ± 500 lx), Day 2.

As to `O=P(O)(O)O.O=c1ccc2ccc(CCN3CCN(c4cccc5sccc45)CC3)cc2[nH]1` [Phosphate of compound Z, Phosphate of 7-(2-(4-(benzo[b]thiophen-4-yl)piperazin-1-yl)ethyl)quinoline-2(1H)-one], the Solubility in data set [1] (Deionized water) was found to be 181.2 µg/mL. Besides, the Solubility in data set [1] (buffer with pH = 2) was 2.8 µg/mL. In addition, the Solubility in data set [1] (buffer with pH = 4.5) turned out to be 0.1 µg/mL. Further, in data set [2], the Composition result is reported as “constant”, the Crystal water result is listed as “No” and the Static electricity result is on record as “No”.

On to `O=c1ccc2ccc(CCN3CCN(c4cccc5sccc45)CC3)cc2[nH]1` [Compound Z, 7-(2-(4-(benzo[b]thiophen-4-yl)piperazin-1-yl)ethyl)quinoline-2(1H)-one], for which the “Acute toxicity, recovery and animal deaths (comparison in words)” value with Wistar rats (dose of 200 mg/kg) was “the highest toxicity, the slowest recovery, and the most animal deaths”. Besides, the values for the Purity in data set [3] (Day 0), in data set [3] (setting [5]) and in data set [3] (setting [6]) were 98.07%, 98.03% and 98.01%, respectively. For the same compound, in data set [3] (under high temperature and illumination conditions), the “Stability (in words)” value was “high stability”. For the same compound, the “Solubility in deionized water (comparison in words)” value in data set [1] (Deionized water) is on record as “significantly lower than those of the salts of compound Z”. In addition, the Solubility in data set [1] (buffer pH 2, aqueous buffer, thermodynamic from solid, buffer with pH = 2, read-out: Solubility) stood at 6.8 µg/mL (≈ 17.5 µM); in data set [1] (buffer pH 4.5, aqueous buffer, thermodynamic from solid, buffer with pH = 4.5, read-out: Solubility) it was 0.7 µg/mL (≈ 1.8 µM). The Composition entry in data set [2] is given as “constant”. The Crystal water entry in data set [2] is on record as “No”. Besides, the Static electricity result in data set [2] is reported as “No”. In data set [4], the Moisture gain is recorded as −0.16%.

Take `O=C(O)CCC(=O)O.O=c1ccc2ccc(CCN3CCN(c4cccc5sccc45)CC3)cc2[nH]1` [Succinate of compound Z, Succinate of 7-(2-(4-(benzo[b]thiophen-4-yl)piperazin-1-yl)ethyl)quinoline-2(1H)-one]: the Purity in data set [3] (Day 0) stood at 98.95%; in data set [3] (setting [5]), 99.93%; in data set [3] (setting [6]), 99.92%. In data set [4], the Moisture gain was determined as 2.02%.

As to `CS(=O)(=O)O.O=c1ccc2ccc(CCN3CCN(c4cccc5sccc45)CC3)cc2[nH]1` [Methanesulfonate of compound Z, Methanesulfonate of 7-(2-(4-(benzo[b]thiophen-4-yl)piperazin-1-yl)ethyl)quinoline-2(1H)-one], the “Animal status after single administration (rigidity/muscle relaxation)” value with Wistar rats (gavage 200 mg/kg, 10 per group, Day 7) is on record as 5 normal. Further, the Purity in data set [3] (Day 0) amounted to 98.60%; in data set [3] (setting [5]) it was 98.47%; in data set [3] (setting [6]), 98.54%. In addition, the “Hygroscopicity (in words)” value in data set [4] is listed as “relatively high hygroscopicity”. Besides, in data set [4], the Moisture gain is 1.74%.

Regarding “Citrate of 7-(2-(4-(benzo[b]thiophen-4-yl)piperazin-1-yl)ethyl)quinoline-2(1H)-one [Citrate of compound Z]”, in data set [2], the Composition entry was “constant”, the Crystal water entry is given as “No” and the Static electricity entry is on record as “No”. Besides, in data set [4], the “Hygroscopicity (in words)” value is recorded as “lower hygroscopicity” and the Moisture gain is recorded as 0.53%.

For the compound `O=C(O)/C=C/C(=O)O.O=c1ccc2ccc(CCN3CCN(c4cccc5sccc45)CC3)cc2[nH]1` [Fumarate of compound Z, Fumarate of 7-(2-(4-(benzo[b]thiophen-4-yl)piperazin-1-yl)ethyl)quinoline-2(1H)-one], the Solubility in data set [1] (Deionized water) was 117.6 µg/mL. Moreover, in data set [1] (buffer with pH = 2), the Solubility was determined as 2.0 µg/mL. The Solubility in data set [1] (buffer with pH = 4.5) was 1.8 µg/mL. In data set [2], the Composition entry is on record as “constant”, the Crystal water result is reported as “No” and the Static electricity result is on record as “No”.

Consider `Cl.O.O=c1ccc2ccc(CCN3CCN(c4cccc5sccc45)CC3)cc2[nH]1` [Monohydrochloride of compound Z, Monohydrochloride Monohydrate of 7-(2-(4-(benzo[b]thiophen-4-yl)piperazin-1-yl)ethyl)quinoline-2(1H)-one], for which, in data set [4], the “Hygroscopicity (in words)” value is recorded as “relatively high hygroscopicity” and the Moisture gain was 7.01%.
